Measured values from patent US12582652B2, “3-(ethoxydifluoromethyl)-6-(5-fluoro-6-(2,2,2-trifluoroethoxy)pyridin-3-yl)-[1,2,4]triazolo[4,3-a]pyrazine as an ion channel modulator” (Praxis Precision Medicines, Inc., priority 2022, dated 2026).
“Also recorded” adds a separate entry of the source.

Key:
[1] = Preliminary exposure data from first 12 participants (Example 9 study); type: in vivo, human
[2] = test system: Scn2a^Q54 transgenic mice; assay: Spontaneous seizure frequency in Scn2aQ54 mouse model of elevated persistent sodium current; type: in vivo
Description: Scn2a^Q54 transgenic mice were generated as described and are maintained as a congenic line on the C57BL/6J (Jax #000664) background (B6.Q54) (Kearney et al., 2001; PMID 11166117). For experiments, F1 generation mice were produced by crossing B6.Q54 hemizygous transgenic males with SJL/J (Jax #000686) females and genotyping for the Scn2a^Q54 transgene. Experimental animals used in this study were male and female postnatal day 18-21 (P18-21) mice, with the majority being P19-P20.
Dosing solutions were freshly formulated on the morning on the study. Dosing solution contained 0.5% methylcellulose with 0.2% Tween-80 was made with 1 mL 10% Tween-80 (in ddH20) and 49 mL 0.5% methylcellulose (in ddH20) either with or without (vehicle) Compound 1 (0.3 mg/kg, 1 mg/kg, 3 mg/kg, or 10 mg/kg). Each animal received a single administration of vehicle or Compound 1 by oral gavage.
For seizure monitoring, two mice were placed into a monitoring cage (23 cm×13 cm) and two side-view cameras were placed to record baseline spontaneous seizure activity. […] After the 30-minute recording, mice were administered Compound 1 or vehicle and returned to their home cage. After 30 minutes, the two mice were returned to the monitoring cage and recorded for an additional 30 minutes to assess post-treatment seizure activity. The number of focal motor seizures with forelimb clonus and repetitive movements lasting 1-5 seconds, and generalized tonic-clonic seizures (GTCS) with rearing and falling lasting approximately 1 minute were counted. Seizures were scored offline by an observer blinded to treatment and pre/post status of the video file.
The numbers of seizures before and after treatment were counted for each animal by a reviewer blinded to treatment and pre/post status of the video record. Mice that had less than three seizures or more than 35 seizures during the baseline period were excluded from the analysis as pre-defined in the study design. Statistical analysis was conducted using two-way repeated measures ANOVA and Sidak's multiple comparisons, with p<0.05 considered statistically significant (GraphPad Prism 8.4). Change in average seizure frequency was determined by averaging each group and then computing relative change as [(avg. post−avg. pre)/avg. pre], expressed as a percentage.

hNaV1.2 [3] = target: T1, hNaV1.2 (Homo sapiens, UniProt Q99250); assay: Peak INa voltage-dependent block, patch clamp; type: cell-based
Procedure: (§1) Voltage Dependent Block (VDB): VDB protocols used a depolarized voltage to keep channels in half-inactivated (resting) states. This allowed equilibrium binding and accurate determination of isoform selectivity (in the absence of biological features). For each cell, the midpoint of inactivation (V0.5) was determined using a 5,000 ms step to increase voltages (10 mV increments) to inactivate the channel immediately followed by a 2 ms step to 0 mV to maximally activate the channels. The holding potential (Vhold) was −120 mV between steps. The peak INa measured in response to the step to 0 mV was plotted and fitted with a Boltzmann equation to determine the V0.5. This value was then used for the VDB protocol. Pharmacology was measured during peak INa in response to step to 0 mV. No leak subtraction was used.

hNaV1.1 [4] = target: T2, hNaV1.1 (Homo sapiens, UniProt P35498); assay: Peak INa voltage-dependent block, patch clamp; type: cell-based
Procedure: as §1

hNaV1.5 [5] = target: T3, hNaV1.5 (Homo sapiens, UniProt Q14524); assay: Peak INa voltage-dependent block, patch clamp; type: cell-based
Procedure: as §1

hNaV1.2 [6] = target: T1, hNaV1.2; assay: Peak INa tonic block, patch clamp; type: cell-based
Procedure: (§2) Tonic Block (TB): Tonic Block (TB) protocols used low stimulation rates (about 0.1 Hz) and negative potentials (−120 mV) to keep channels in closed (resting) states. Pharmacology was measured during peak INa in response to step to 0 mV. No leak subtraction was used.

hNaV1.1 [7] = target: T2, hNaV1.1; assay: Peak INa tonic block, patch clamp; type: cell-based
Procedure: as §2

hNaV1.5 [8] = target: T3, hNaV1.5; assay: Peak INa tonic block, patch clamp; type: cell-based
Procedure: as §2

[9] = Compound 1 human pharmacokinetics as stated in trial rationale; type: in vivo; conditions: predicted from current knowledge of pharmacokinetics
[10] = 2-part Phase 1 trial (28 days; OXC combination): pharmacokinetics
Description: This was a 2-part randomized, placebo-controlled Phase 1 trial in healthy participants aged 18-55 years. […] PD effects were examined on quantitative EEG (qEEG; resting and vigilant conditions) and stimulated EEG using auditory steady state response (ASSR). A total of 48 participants were enrolled; Part A, n=30; Part B, n=18.

[11] = test system: heterozygous Kcnq2 K556E mice; assay: Pentylenetetrazole (PTZ) induced seizure, Kcnq2 model; type: in vivo, mouse
Procedure: Pentylenetetrazole (PTZ), a GABA receptor antagonist, can be used to create a common, chemically-induced seizure model, a model of generalized seizure.
Mice were acclimated to experimental area for minimum 30 minutes before experimentation. All experiments were performed between 10:00 am and 12:30 pm. The treatment compounds and PTZ were always prepared fresh.
Mice were randomly assigned either to different doses of Compound 1 (10 mg/kg, 1 mg/kg, or 0.1 mg/kg) or a vehicle control containing 0.5% methylcellulose and 0.2% tween 80, and dosed via oral gavage (p.o). Compound 1 and the vehicle control were administered 60 minutes before the injection of PTZ.
PTZ (100 mg/kg) was dissolved in saline and administered subcutaneously (s.c) to the experimental mice. The latency to full tonic-clonic seizure with hind limb extension was measured. The animals were sacrificed either at the time of hind limb extension or 40 minutes after PTZ administration if no hind limb extension was recorded.
Data were analyzed using a Mantel-Cox log-rank test. Brain tissue and plasma were collected from some mice for each dose of Compound 1 at the PTZ endpoint for PK analysis.

T1 sequence (Q99250 whole entry, canonical isoform): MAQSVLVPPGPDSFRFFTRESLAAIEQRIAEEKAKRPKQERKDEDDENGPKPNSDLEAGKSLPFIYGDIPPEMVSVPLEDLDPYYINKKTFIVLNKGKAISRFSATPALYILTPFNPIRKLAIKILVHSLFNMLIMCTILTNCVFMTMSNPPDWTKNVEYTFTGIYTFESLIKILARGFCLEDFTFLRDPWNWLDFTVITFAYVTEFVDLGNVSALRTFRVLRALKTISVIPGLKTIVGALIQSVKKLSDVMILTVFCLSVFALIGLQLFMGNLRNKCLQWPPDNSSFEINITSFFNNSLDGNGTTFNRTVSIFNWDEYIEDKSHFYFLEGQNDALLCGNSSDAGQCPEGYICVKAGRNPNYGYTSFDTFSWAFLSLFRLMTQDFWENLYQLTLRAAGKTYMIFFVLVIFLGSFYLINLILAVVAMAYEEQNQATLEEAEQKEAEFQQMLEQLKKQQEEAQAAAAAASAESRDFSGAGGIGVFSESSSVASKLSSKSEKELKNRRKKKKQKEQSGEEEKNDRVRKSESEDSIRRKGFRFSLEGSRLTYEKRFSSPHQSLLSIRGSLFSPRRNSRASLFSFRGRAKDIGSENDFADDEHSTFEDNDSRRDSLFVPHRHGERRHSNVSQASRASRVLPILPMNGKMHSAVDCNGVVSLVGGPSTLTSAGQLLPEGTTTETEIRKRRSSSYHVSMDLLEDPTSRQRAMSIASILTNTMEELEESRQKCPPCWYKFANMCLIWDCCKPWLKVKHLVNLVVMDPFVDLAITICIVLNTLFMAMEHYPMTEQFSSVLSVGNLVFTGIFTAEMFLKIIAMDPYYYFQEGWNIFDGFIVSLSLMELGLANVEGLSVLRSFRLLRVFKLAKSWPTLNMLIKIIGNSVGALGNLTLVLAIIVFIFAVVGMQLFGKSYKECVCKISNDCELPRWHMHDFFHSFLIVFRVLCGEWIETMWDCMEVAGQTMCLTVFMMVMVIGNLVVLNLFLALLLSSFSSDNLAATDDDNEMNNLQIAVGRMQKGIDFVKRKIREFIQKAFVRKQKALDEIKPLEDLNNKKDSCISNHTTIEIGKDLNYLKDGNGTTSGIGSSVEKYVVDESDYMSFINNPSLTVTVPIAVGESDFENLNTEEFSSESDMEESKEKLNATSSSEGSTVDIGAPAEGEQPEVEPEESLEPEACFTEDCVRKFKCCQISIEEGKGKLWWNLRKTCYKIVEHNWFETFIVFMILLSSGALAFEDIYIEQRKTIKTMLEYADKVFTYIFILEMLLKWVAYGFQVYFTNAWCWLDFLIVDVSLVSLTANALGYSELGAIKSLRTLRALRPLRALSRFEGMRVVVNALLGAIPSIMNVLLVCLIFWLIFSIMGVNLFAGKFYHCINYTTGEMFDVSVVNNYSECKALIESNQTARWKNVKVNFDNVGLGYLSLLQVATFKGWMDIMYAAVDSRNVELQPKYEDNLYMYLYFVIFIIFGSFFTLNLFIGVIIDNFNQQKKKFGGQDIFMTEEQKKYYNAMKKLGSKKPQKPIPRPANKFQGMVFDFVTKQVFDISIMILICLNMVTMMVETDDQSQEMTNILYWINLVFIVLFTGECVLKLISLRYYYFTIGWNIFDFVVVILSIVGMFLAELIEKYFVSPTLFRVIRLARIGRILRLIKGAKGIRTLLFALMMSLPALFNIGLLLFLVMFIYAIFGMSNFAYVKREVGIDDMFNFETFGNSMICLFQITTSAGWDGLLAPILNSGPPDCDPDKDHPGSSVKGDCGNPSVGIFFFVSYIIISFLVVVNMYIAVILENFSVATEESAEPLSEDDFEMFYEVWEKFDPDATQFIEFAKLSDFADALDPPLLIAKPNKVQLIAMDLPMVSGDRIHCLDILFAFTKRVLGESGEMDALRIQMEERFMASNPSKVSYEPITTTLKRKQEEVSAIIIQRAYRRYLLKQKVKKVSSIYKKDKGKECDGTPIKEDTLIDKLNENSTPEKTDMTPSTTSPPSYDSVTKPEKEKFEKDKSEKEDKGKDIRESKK
T3 sequence (Q14524 1-2015 isoform Q14524-2): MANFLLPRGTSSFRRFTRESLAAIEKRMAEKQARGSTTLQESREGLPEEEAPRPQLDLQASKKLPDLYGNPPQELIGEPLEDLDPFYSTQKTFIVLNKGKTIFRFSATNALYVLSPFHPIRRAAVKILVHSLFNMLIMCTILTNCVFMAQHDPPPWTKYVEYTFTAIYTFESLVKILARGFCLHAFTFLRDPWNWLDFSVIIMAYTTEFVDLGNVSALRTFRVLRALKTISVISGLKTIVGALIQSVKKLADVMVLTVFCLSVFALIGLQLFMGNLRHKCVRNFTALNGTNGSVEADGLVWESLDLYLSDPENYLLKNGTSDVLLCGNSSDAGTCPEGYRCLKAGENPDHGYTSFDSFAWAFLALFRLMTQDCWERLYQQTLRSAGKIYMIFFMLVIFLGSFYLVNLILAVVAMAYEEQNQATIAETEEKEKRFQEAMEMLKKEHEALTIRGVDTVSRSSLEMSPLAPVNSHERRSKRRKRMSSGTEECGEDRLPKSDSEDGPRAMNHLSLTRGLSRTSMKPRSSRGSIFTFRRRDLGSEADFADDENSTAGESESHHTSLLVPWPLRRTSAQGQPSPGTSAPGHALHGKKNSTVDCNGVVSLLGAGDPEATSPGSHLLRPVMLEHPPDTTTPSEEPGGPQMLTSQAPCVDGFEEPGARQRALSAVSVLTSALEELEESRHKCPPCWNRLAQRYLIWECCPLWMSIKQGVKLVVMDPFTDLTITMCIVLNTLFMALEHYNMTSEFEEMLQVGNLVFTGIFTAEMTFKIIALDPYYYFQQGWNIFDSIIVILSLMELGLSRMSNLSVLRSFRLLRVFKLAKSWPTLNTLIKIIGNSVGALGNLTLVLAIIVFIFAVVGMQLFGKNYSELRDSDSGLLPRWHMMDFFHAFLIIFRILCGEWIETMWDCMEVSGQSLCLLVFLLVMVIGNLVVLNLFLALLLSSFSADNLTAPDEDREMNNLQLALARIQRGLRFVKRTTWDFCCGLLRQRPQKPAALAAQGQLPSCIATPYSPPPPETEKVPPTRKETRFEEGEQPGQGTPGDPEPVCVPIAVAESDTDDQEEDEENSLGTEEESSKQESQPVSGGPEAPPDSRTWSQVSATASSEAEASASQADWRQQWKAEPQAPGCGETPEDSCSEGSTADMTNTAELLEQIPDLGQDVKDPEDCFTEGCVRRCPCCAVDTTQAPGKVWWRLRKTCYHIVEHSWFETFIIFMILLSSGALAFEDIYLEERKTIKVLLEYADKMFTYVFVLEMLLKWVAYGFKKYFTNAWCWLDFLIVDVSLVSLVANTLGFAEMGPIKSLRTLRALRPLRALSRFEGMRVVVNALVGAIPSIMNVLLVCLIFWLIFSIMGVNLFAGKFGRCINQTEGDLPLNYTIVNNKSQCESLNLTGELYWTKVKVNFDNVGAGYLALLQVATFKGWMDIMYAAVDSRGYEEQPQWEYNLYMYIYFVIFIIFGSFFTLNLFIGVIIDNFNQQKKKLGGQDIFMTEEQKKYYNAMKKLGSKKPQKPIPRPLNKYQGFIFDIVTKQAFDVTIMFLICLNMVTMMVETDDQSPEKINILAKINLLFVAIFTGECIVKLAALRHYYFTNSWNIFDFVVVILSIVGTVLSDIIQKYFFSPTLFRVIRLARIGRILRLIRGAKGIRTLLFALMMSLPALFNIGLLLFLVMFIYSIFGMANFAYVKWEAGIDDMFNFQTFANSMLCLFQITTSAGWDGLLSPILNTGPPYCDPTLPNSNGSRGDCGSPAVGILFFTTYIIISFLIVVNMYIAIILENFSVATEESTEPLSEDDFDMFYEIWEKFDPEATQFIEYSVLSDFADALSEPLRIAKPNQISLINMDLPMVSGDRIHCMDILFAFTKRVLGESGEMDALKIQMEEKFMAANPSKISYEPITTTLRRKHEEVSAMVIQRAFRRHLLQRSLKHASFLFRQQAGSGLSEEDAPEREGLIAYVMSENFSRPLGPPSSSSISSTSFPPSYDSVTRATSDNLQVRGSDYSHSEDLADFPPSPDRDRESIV

**Q.** Which “Compound 1 exposures on Day 1 (after single dose)” value [1] does the source give for `CCOC(F)(F)c1nnc2cnc(-c3cnc(OCC(F)(F)F)c(F)c3)cn12` [Compound 1, 3-(ethoxydifluoromethyl)-6-(5-fluoro-6-(2,2,2-trifluoroethoxy)pyridin-3-yl)-[1,2,4]triazolo[4,3-a]pyrazine] here?
**A.** The value was “above therapeutic range; also recorded: above predicted therapeutic levels”.

**Q.** And the “exposure after 28 days of once daily dosing and auto-titration” value [1]?
**A.** Its value is “approaching steady-state; also recorded: approaches steady state”.

**Q.** And the “mice showing seizures after dosing” value ([2]; 10 mg/kg)?
**A.** Its value is “no mice showing any seizures”.

**Q.** What about the “seizure frequency compared to pre-treatment baseline” value ([2]; 1, 3 and 10 mg/kg p.o., 30 min after treatment) of the same compound?
**A.** Its value is “significant reduction”.

**Q.** What about the “protection from spontaneous seizures (FIG. 14A)” value ([2]; Scn2a Q54 DEE mouse model) of the same compound?
**A.** Its value is “completely block seizures”.

**Q.** What about the “reduction in seizure frequency” value ([2]; doses of 1 mg/kg and above) of the same compound?
**A.** Its value is 50%.

**Q.** What about the “preference for persistent INa over peak INa voltage-dependent block” value (hNaV1.2 [3]) of the same compound?
**A.** Its value is 8.2 fold.

**Q.** And the “preference for persistent INa over peak INa voltage-dependent block” value (hNaV1.1 [4])?
**A.** The value was 6.3 fold.

**Q.** What about the “preference for persistent INa over peak INa voltage-dependent block” value (hNaV1.5 [5]) of the same compound?
**A.** The value was 5.8 fold.

**Q.** What about the IC50 (hNaV1.2 [6]) of the same compound?
**A.** Its IC50 is 13.7 µM.

**Q.** And the “preference for persistent INa over peak INa tonic block” value (“preference … over peak INa tonic block” for short) (hNaV1.2 [6])?
**A.** The value was 80 fold.

**Q.** And the IC50 (hNaV1.1 [7])?
**A.** Its IC50 is 18.9 µM.

**Q.** What about the “preference … over peak INa tonic block” value (hNaV1.1 [7]) of the same compound?
**A.** The value was 173 fold.

**Q.** What about the “preference … over peak INa tonic block” value (hNaV1.5 [8]) of the same compound?
**A.** Its value is > 174 fold.

**Q.** And the “peak INa tonic block inhibition” value (hNaV1.5 [8]; at 30 000 nmol/L)?
**A.** The value was 12%.

**Q.** And the “time predicted to achieve 90% steady state” value [9]?
**A.** The value was “about 6 weeks”.

**Q.** And the “approach to steady state” value ([10]; 90 mg QD for 28 days, Part A)?
**A.** Its value is “approached steady state”.

**Q.** And the “increase in Compound 1 concentrations over human-equivalent dose required for efficacy in preclinical MES models” value ([10]; Part A, 90 mg QD)?
**A.** The value was 13 fold.

**Q.** What about the “Compound 1 exposure with OXC coadministration” value ([10]; Part B, data not shown) of the same compound?
**A.** Its value is “did not appear to be altered”.

**Q.** What about the “efficacy in KCNQ2 K556E PTZ seizure model” value ([11]; 10 mg/kg p.o., 60 min before PTZ 100 mg/kg s.c.) of the same compound?
**A.** Its value is “highly efficacious”.

**Q.** What about the “protection from hindlimb extension (FIG. 14C)” value ([11]; Kcnq2 DEE mouse model, PTZ) of the same compound?
**A.** The value was “robust anticonvulsant activity”.
